In US20260355196A1, “INHIBITORS AND DEGRADERS OF PIP4K PROTEIN” (Larkspur Biosciences, Inc., priority 2023, published 2026):
Where two headings read alike, the source gives them in different places.

Molecular target: T1, PIP4K2C (Homo sapiens, UniProt Q8TBX8)
T1 sequence (Q8TBX8 1-421): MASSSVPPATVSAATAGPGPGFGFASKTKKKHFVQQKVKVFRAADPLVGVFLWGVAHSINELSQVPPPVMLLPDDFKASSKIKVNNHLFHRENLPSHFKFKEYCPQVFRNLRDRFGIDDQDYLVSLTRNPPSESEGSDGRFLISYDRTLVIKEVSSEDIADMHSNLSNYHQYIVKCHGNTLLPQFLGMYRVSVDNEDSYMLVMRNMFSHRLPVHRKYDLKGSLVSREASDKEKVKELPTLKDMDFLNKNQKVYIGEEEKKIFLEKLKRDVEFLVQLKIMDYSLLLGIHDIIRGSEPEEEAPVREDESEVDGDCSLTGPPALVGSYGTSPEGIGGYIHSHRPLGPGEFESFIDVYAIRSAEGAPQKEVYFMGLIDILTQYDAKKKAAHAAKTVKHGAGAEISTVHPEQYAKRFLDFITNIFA
Experiment: HiBiT PIP4K2C degradation assay in MOLT-4 cells (endogenous PIP4K2C C-terminally tagged with HiBiT)
Format: cell-based
Parameters: untagged in primary human PBMCs and monocyte-derived dendritic cells
Conditions: MOLT-4, top concentration 10 micromolar
Outline: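 Luminescent HiBiT lytic readout of residual PIP4K2C-HiBiT (CRISPR knock-in, MOLT-4, phenol red-free RPMI-1640 + 10% FBS). Cells exposed 6 or 24 h at 37 C to compound, top 10 micromolar, 3-fold, 10 points, duplicate. Hill fit (Levenberg-Marquardt) gives DC50.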

[1] = 24 hours incubation, read-out: HiBIT-degradation MOLT4 PIP4k2C 24 hours DC50

| SMILES | DC50 (6 hours of incubation time, rather than 24 hours, read-out: HiBIT-degradation MOLT4 PIP4k2C DC50 (6 hours, marked *)) | DC50 [1] |
| --- | --- | --- |
| O=C1CCC(Nc2ccc(C3CCN(CCC4CCN(C(=O)[C@@H]5CCC[C@H](Nc6ncc(F)c(-c7cccc(-n8ccccc8=O)c7)n6)C5)CC4)CC3)c(F)c2)C(=O)N1 (stereo partly drawn) [Compound 308, 3-((3-fluoro-4-(1-(2-(1-((1R,3S)-3-((5-fluoro-4-(3-(2-oxopyridin-1(2H)-yl)phenyl)pyrimidin-2-yl)amino)cyclohexane-1-carbonyl)piperidin-4-yl)ethyl)piperidin-4-yl)phenyl)amino)piperidine-2,6-dione] | < 500 nM |  |
| O=C1CCC(Nc2ccc(C3CCN(CCC4CCN(C(=O)[C@H]5CCC[C@@H](Nc6ncc(F)c(-c7cccc(-n8ccccc8=O)c7)n6)C5)CC4)CC3)c(F)c2)C(=O)N1 (stereo partly drawn) [Compound 309, 3-((3-fluoro-4-(1-(2-(1-((1S,3R)-3-((5-fluoro-4-(3-(2-oxopyridin-1(2H)-yl)phenyl)pyrimidin-2-yl)amino)cyclohexane-1-carbonyl)piperidin-4-yl)ethyl)piperidin-4-yl)phenyl)amino)piperidine-2,6-dione] |  | > 5000 nM |
| O=C1CCC(Nc2ccc(C3CCN(CCC4CCN(C(=O)[C@@H]5CCC[C@H](Nc6ncc(F)c(-c7cccc(-n8ccccc8=O)c7)n6)C5)CC4)CC3(F)F)c(F)c2)C(=O)N1 (stereo partly drawn) [Compound 310, 3-[4-[3,3-difluoro-1-[2-[1-[(1R,3S)-3-[[5-fluoro-4-[3-(2-oxo-1-pyridyl)phenyl]pyrimidin-2-yl]amino]cyclohexanecarbonyl]-4-piperidyl]ethyl]-4-piperidyl]-3-fluoro-anilino]piperidine-2,6-dione] |  | < 500 nM |
| O=C1CCC(Nc2ccc(C3CCN(CCC4CCN(C(=O)[C@H]5CCC[C@@H](Nc6ncc(F)c(-c7cccc(-n8ccccc8=O)c7)n6)C5)CC4)CC3(F)F)c(F)c2)C(=O)N1 (stereo partly drawn) [Compound 311, 3-((4-(3,3-difluoro-1-(2-(1-((1S,3R)-3-((5-fluoro-4-(3-(2-oxopyridin-1(2H)-yl)phenyl)pyrimidin-2-yl)amino)cyclohexane-1-carbonyl)piperidin-4-yl)ethyl)piperidin-4-yl)-3-fluorophenyl)amino)piperidine-2,6-dione] |  | < 500 nM |
| Cn1c(=O)n(C2CCC(=O)NC2=O)c2ccc(C3CCN(CC4CCN(CC(=O)N5CCC(Nc6ncc(F)c(-c7cccc(-n8ccccc8=O)c7)n6)CC5)CC4)CC3)cc21 (centres unmarked) [Compound 312, 3-(5-(1-((1-(2-(4-((5-fluoro-4-(3-(2-oxopyridin-1(2H)-yl)phenyl)pyrimidin-2-yl)amino)piperidin-1-yl)-2-oxoethyl)piperidin-4-yl)methyl)piperidin-4-yl)-3-methyl-2-oxo-2,3-dihydro-1H-benzo[d]imidazol-1-yl)piperidine-2,6-dione] |  | < 500 nM |
| O=C1CCC(Nc2ccc(C3CCN(CC4CCN(CC(=O)N[C@H]5CC[C@H](Nc6ncc(F)c(-c7cccc(-n8ccccc8=O)c7)n6)CC5)CC4)CC3)c(F)c2)C(=O)N1 (stereo partly drawn) [Compound 313, trans-2-(4-((4-(4-((2,6-dioxopiperidin-3-yl)amino)-2-fluorophenyl)piperidin-1-yl)methyl)piperidin-1-yl)-N-(4-((5-fluoro-4-(3-(2-oxopyridin-1(2H)-yl)phenyl)pyrimidin-2-yl)amino)cyclohexyl)acetamide] |  | < 500 nM |
| O=C1CCC(Nc2ccc(C3CCN(CC4CCN(CC(=O)N5CCC(Nc6ncc(F)c(-c7cccc(-n8ccccc8=O)c7)n6)CC5)CC4)CC3)c(F)c2)C(=O)N1 (centres unmarked) [Compound 314, 3-((3-fluoro-4-(1-((1-(2-(4-((5-fluoro-4-(3-(2-oxopyridin-1(2H)-yl)phenyl)pyrimidin-2-yl)amino)piperidin-1-yl)-2-oxoethyl)piperidin-4-yl)methyl)piperidin-4-yl)phenyl)amino)piperidine-2,6-dione] |  | < 500 nM |
| Cn1nc(C2CCC(=O)NC2=O)c2ccc(C3CCN(CC4CCN(CC(=O)N5CCC(Nc6ncc(F)c(-c7cccc(-n8ccccc8=O)c7)n6)CC5)CC4)CC3)cc21 (centres unmarked) [Compound 315, 3-(6-(1-((1-(2-(4-((5-fluoro-4-(3-(2-oxopyridin-1(2H)-yl)phenyl)pyrimidin-2-yl)amino)piperidin-1-yl)-2-oxoethyl)piperidin-4-yl)methyl)piperidin-4-yl)-1-methyl-1H-indazol-3-yl)piperidine-2,6-dione] |  | < 500 nM |
| O=C1CCC(Nc2ccc(N3CCC(CCN4CCC(C(=O)N[C@H]5CC[C@H](Nc6ncc(F)c(-c7cccc(-n8ccccc8=O)c7)n6)CC5)CC4)CC3)c(F)c2)C(=O)N1 (stereo partly drawn) [Compound 316, trans-1-[2-[1-[4-[(2,6-dioxo-3-piperidyl)amino]-2-fluoro-phenyl]-4-piperidyl]ethyl]-N-[4-[[5-fluoro-4-[3-(2-oxo-1-pyridyl)phenyl]pyrimidin-2-yl]amino]cyclohexyl]piperidine-4-carboxamide] |  | < 500 nM |
| O=C1CCC(n2c(=O)oc3cc(N4CCC(N5CCC(C(=O)N[C@H]6CC[C@H](Nc7ncc(F)c(-c8cccc(-n9ccccc9=O)c8)n7)CC6)CC5)CC4)ccc32)C(=O)N1 (stereo partly drawn) [Compound 317, trans-1′-(3-(2,6-dioxopiperidin-3-yl)-2-oxo-2,3-dihydrobenzo[d]oxazol-6-yl)-N-(4-((5-fluoro-4-(3-(2-oxopyridin-1(2H)-yl)phenyl)pyrimidin-2-yl)amino)cyclohexyl)-[1,4′-bipiperidine]-4-carboxamide] |  | < 500 nM |
| O=C1CCC(Nc2ccc(C3CCN(CC4CCN(C(=O)[C@H]5CC[C@H](Nc6ncc(F)c(-c7cccc(-n8ccccc8=O)c7)n6)CC5)CC4)CC3)c(F)c2)C(=O)N1 (stereo partly drawn) [Compound 318, trans-3-((3-fluoro-4-(1-((1-(4-((5-fluoro-4-(3-(2-oxopyridin-1(2H)-yl)phenyl)pyrimidin-2-yl)amino)cyclohexane-1-carbonyl)piperidin-4-yl)methyl)piperidin-4-yl)phenyl)amino)piperidine-2,6-dione] |  | < 500 nM |
| O=C1CCC(Nc2ccc(N3CCN([C@H]4CC[C@H](C(=O)N[C@H]5CC[C@H](Nc6ncc(F)c(-c7cccc(-n8ccccc8=O)c7)n6)CC5)CC4)CC3)c(F)c2)C(=O)N1 (stereo partly drawn) [Compound 319, trans-trans-4-(4-(4-((2,6-dioxopiperidin-3-yl)amino)-2-fluorophenyl)piperazin-1-yl)-N-(4-((5-fluoro-4-(3-(2-oxopyridin-1(2H)-yl)phenyl)pyrimidin-2-yl)amino)cyclohexyl)cyclohexane-1-carboxamide] |  | < 500 nM |
| O=C1CCC(n2c(=O)oc3cc(C4CCN(CCC5CCN(C(=O)[C@H]6CC[C@H](Nc7ncc(F)c(-c8cccc(-n9ccccc9=O)c8)n7)CC6)CC5)CC4)ccc32)C(=O)N1 (stereo partly drawn) [Compound 321, trans-3-(6-(1-(2-(1-(4-((5-fluoro-4-(3-(2-oxopyridin-1(2H)-yl)phenyl)pyrimidin-2-yl)amino)cyclohexane-1-carbonyl)piperidin-4-yl)ethyl)piperidin-4-yl)-2-oxobenzo[d]oxazol-3 (2H)-yl)piperidine-2,6-dione] |  | < 500 nM |
| O=C1CCC(Nc2ccc(C3CCN(CCC4CCN(C(=O)[C@H]5CC[C@H](Nc6ncc(F)c(-c7cccc(-n8ccccc8=O)c7)n6)CC5)CC4)CC3)c(F)c2)C(=O)N1 (stereo partly drawn) [Compound 322, trans-3-((3-fluoro-4-(1-(2-(1-((1r,4r)-4-((5-fluoro-4-(3-(2-oxopyridin-1(2H)-yl)phenyl)pyrimidin-2-yl)amino)cyclohexane-1-carbonyl)piperidin-4-yl)ethyl)piperidin-4-yl)phenyl)amino)piperidine-2,6-dione] |  | < 500 nM |
| O=C1CCC(n2c(=O)oc3cc(C4CCN(CC5CCN(C(=O)[C@H]6CC[C@H](Nc7ncc(F)c(-c8cccc(-n9ccccc9=O)c8)n7)CC6)CC5)CC4)ccc32)C(=O)N1 (stereo partly drawn) [Compound 323, trans-3-(6-(1-((1-(4-((5-fluoro-4-(3-(2-oxopyridin-1(2H)-yl)phenyl)pyrimidin-2-yl)amino)cyclohexane-1-carbonyl)piperidin-4-yl)methyl)piperidin-4-yl)-2-oxobenzo[d]oxazol-3 (2H)-yl)piperidine-2,6-dione] |  | < 500 nM |
| O=C1CCC(n2c(=O)oc3cc(C4CCN(CCC5CCN(C(=O)[C@H]6C[C@@H](Nc7ncc(F)c(-c8cccc(-n9ccccc9=O)c8)n7)C6)CC5)CC4)ccc32)C(=O)N1 (stereo partly drawn) [Compound 325, cis-3-(6-(1-(2-(1-(3-((5-fluoro-4-(3-(2-oxopyridin-1(2H)-yl)phenyl)pyrimidin-2-yl)amino)cyclobutane-1-carbonyl)piperidin-4-yl)ethyl)piperidin-4-yl)-2-oxobenzo[d]oxazol-3 (2H)-yl)piperidine-2,6-dione] |  | < 500 nM |
| O=C1CCC(Nc2ccc(N3CCN(CC4CCN(CC(=O)N[C@H]5CC[C@H](Nc6ncc(F)c(-c7cccc(-n8ccccc8=O)c7)n6)CC5)CC4)CC3)c(F)c2)C(=O)N1 (stereo partly drawn) [Compound 326, trans-2-(4-((4-(4-((2,6-dioxopiperidin-3-yl)amino)-2-fluorophenyl)piperazin-1-yl)methyl)piperidin-1-yl)-N-(4-((5-fluoro-4-(3-(2-oxopyridin-1(2H)-yl)phenyl)pyrimidin-2-yl)amino)cyclohexyl)acetamide] |  | < 500 nM |
